Test [1] deals with Squalene monooxygenase (Homo sapiens, UniProt Q14534). Put plainly: Inhibitory activity against Squalene Epoxidase in pig liver; NI-No inhibitory effect at 400 uM. Details: species or system Sus scrofa. To be noted: target entry is the homologue from another species.
The target of test [2] is T1, Lanosterol synthase (Rattus norvegicus, UniProt P48450).
T1 sequence (P48450 whole entry): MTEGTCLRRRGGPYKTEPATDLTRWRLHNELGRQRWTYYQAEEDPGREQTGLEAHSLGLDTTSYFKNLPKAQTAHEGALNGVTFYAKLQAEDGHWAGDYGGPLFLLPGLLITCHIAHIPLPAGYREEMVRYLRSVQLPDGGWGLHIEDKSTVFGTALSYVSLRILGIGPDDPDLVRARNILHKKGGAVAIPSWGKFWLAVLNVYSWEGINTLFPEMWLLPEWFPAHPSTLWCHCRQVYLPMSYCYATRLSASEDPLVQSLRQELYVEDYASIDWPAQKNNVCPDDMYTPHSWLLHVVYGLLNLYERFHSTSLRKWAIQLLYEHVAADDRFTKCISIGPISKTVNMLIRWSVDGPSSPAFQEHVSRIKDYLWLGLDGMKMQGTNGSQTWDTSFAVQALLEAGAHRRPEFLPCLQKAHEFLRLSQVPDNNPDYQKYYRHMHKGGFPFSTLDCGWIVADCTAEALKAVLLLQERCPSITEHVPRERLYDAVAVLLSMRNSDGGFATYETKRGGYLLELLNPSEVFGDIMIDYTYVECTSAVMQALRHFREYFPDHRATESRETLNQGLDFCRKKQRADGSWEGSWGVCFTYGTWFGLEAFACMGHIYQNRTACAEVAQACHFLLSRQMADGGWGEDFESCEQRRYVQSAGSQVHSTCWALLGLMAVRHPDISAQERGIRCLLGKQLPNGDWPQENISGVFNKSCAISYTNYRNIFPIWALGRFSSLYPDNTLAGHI
Put plainly: Inhibitory activity against Oxidosqualene-lanosterol cyclase in pig liver; NI-No inhibitory effect at 400 uM. On the set-up: species or system Sus scrofa. To be noted: target entry is the homologue from another species.

The structures appear in SMILES notation.

This is an account of results in ChEMBL document CHEMBL1124698, “Squalene analogues containing isopropylidene mimics as potential inhibitors of pig liver squalene epoxidase and oxidosqualene cyclase” (J Med Chem, 1989).

Sequence of Squalene monooxygenase (Q14534 whole entry): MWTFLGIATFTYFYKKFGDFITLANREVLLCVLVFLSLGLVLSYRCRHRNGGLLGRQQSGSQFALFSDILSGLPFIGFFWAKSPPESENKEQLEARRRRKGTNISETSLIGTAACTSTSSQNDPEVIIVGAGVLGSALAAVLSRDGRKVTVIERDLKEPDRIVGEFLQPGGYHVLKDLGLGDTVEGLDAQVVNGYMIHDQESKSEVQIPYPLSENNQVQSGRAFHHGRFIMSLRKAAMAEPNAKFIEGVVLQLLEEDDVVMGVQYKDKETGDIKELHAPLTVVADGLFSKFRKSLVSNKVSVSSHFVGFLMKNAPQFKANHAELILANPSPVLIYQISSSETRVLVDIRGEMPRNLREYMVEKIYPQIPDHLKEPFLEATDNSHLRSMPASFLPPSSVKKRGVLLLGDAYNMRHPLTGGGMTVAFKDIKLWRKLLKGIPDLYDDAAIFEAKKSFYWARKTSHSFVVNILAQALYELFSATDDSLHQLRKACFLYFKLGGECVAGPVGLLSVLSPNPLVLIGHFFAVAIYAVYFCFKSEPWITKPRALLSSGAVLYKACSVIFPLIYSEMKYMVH

On to `C#CCC/C(C)=C/CC/C(C)=C/CC/C=C(\C)CC/C=C(\C)CCC=C(C)C`, for which, in test [1], the IC50 entry is listed as “No inhibition”. Turning to `C=C=CCC/C(C)=C/CC/C(C)=C/CC/C=C(\C)CC/C=C(\C)CCC=C(C)C`, the IC50 result in test [1] and in test [2] was “No inhibition” throughout.
